Molecules are shown by their SMILES.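 Grown in 96-well plates, cells were treated for 48 hours with each compound at five concentrations. Insufficient inhibition: endpoint recorded as highest concentration tested. The concentration for 50% growth inhibition is given as GI50.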 The source made the active and inactive calls. Cut-off read from the data, not from the text of the source: active = GI50 up to about 1.1 µM and inactive = higher.

Test systems include SK-MEL-2; KM12; OVCAR-5; TK-10; UACC-257; SK-OV-3; ACHN; SR; A549; SF-268; NCI-H522; U-251; HCT-15; SNB-19; Malme-3M; NCI-H226; HT-29; K562; UO-31; OVCAR-3.
Holding throughout (assay): DTP human tumour cell line panel, 48 h

On to `COc1ccc(C2N(NC(=O)c3ccncc3)C(=O)CS2(=O)=O)cc1F` (configuration not stated), for which the GI50 with SK-MEL-2, in the experiment with KM12, in the experiment on OVCAR-5, with TK-10, in the experiment on UACC-257 and in the experiment with SK-OV-3 was > 100 µM (inactive) throughout. Moreover, the GI50 (commonly the concentration at which growth is held to half of that of the control) with ACHN was > 100 µM (inactive); in the experiment with SR it was > 100 µM (inactive); in the experiment with A549 it was > 100 µM (inactive); with SF-268, > 100 µM (inactive); in the experiment with NCI-H522, 92.3 µM (inactive); in the experiment on U-251 it was > 100 µM (inactive). Further, the GI50 was above 100 µM in the experiment on HCT-15; > 100 µM (inactive) in the experiment with SNB-19; > 100 µM (inactive) in the experiment on Malme-3M; > 100 µM (inactive) in the experiment on NCI-H226; > 100 µM (inactive) in the experiment with HT-29.

For the compound `Cc1ccc(NC(=S)NNC(=O)c2cc(-c3ccccc3)nc3ccccc23)cc1C`, the GI50 with SK-MEL-2 is 18.6 µM (inactive); with KM12, 27.4 µM (inactive); in the experiment with OVCAR-5 it was 26.8 µM (inactive); with TK-10, 23.7 µM (inactive); in the experiment with UACC-257 it was 26.4 µM (inactive); in the experiment with SK-OV-3, 16.6 µM (inactive). The GI50 is 25.2 µM (inactive) in the experiment with ACHN; 14.6 µM (inactive) in the experiment with SR; 20.5 µM (inactive) in the experiment on A549; 29.4 µM (inactive) with SF-268; 22.5 µM (inactive) in the experiment on NCI-H522; 19.5 µM (inactive) in the experiment with U-251. Besides, the GI50 in the experiment on HCT-15 is 20.4 µM; in the experiment on SNB-19, 32 µM (inactive); in the experiment on K562, 33 µM (inactive); with Malme-3M, 20 µM (inactive); in the experiment with UO-31 it was 17.9 µM (inactive); in the experiment with NCI-H226, 34.8 µM (inactive). The GI50 in the experiment on HT-29 was 23.7 µM (inactive).

For `CC(C)(C)C(=O)OCC1C(=O)OCC1C(=O)N1Cc2cc3ccccc3nc2C1` (configuration not stated), the GI50 was 8.59 µM (inactive) in the experiment on SK-MEL-2; 15.8 µM (inactive) in the experiment on KM12; 10.5 µM (inactive) with OVCAR-5; 2.15 µM (inactive) in the experiment on TK-10; 4.42 µM (inactive) with UACC-257; 16.1 µM (inactive) in the experiment with SK-OV-3. For the same compound, the GI50 is 2.36 µM (inactive) in the experiment on ACHN; 0.757 µM (active) in the experiment on SR; 15.2 µM (inactive) in the experiment with A549; 8.91 µM (inactive) in the experiment on SF-268; 4.07 µM (inactive) in the experiment on OVCAR-3; 0.569 µM (active) with NCI-H522. The GI50 with U-251 was 9.2 µM (inactive); in the experiment with HCT-15 it was 1.75 µM; in the experiment with SNB-19, 18.3 µM (inactive); in the experiment on K562, 0.728 µM (active); with Malme-3M it was 1.46 µM (inactive); in the experiment with UO-31, 2.47 µM (inactive). In addition, the results for the GI50 with NCI-H226 and in the experiment with HT-29 were 6.56 µM (inactive) and 3.5 µM (inactive), respectively.

For `CCCS(=O)(=O)O`, the GI50 in the experiment on SK-MEL-2, in the experiment with KM12, in the experiment on OVCAR-5, in the experiment with TK-10, in the experiment with UACC-257 and in the experiment on SK-OV-3 was > 100 µM (inactive) each time. Further, the GI50 in the experiment on ACHN, in the experiment on SR, with A549, with SF-268, with OVCAR-3 and in the experiment with NCI-H522 was > 100 µM (inactive) throughout. In addition, the GI50 with U-251 is > 100 µM (inactive); with HCT-15, above 100 µM; in the experiment on SNB-19 it was > 100 µM (inactive); in the experiment with K562, > 100 µM (inactive); in the experiment on Malme-3M, > 100 µM (inactive); in the experiment with UO-31, > 100 µM (inactive). The GI50 in the experiment on NCI-H226 and in the experiment with HT-29 was > 100 µM (inactive) each time.

For the compound `CCCCC1(N=[N+]=[N-])C(=O)c2cccc3c2N(CCC3)C1=O` (configuration not stated), the GI50 in the experiment on SK-MEL-2, in the experiment on KM12, in the experiment with OVCAR-5, in the experiment on TK-10, in the experiment with UACC-257 and in the experiment on SK-OV-3 was > 100 µM (inactive) in each case. Moreover, the GI50 was > 100 µM (inactive) with ACHN; > 100 µM (inactive) in the experiment on SR; > 100 µM (inactive) in the experiment with A549; > 100 µM (inactive) with SF-268; 44.6 µM (inactive) in the experiment on OVCAR-3; > 100 µM (inactive) with NCI-H522. Also, the GI50 in the experiment on U-251 was > 100 µM (inactive); in the experiment with HCT-15, above 100 µM; in the experiment on SNB-19 it was > 100 µM (inactive); in the experiment with K562 it was > 100 µM (inactive); in the experiment on Malme-3M, > 100 µM (inactive); with NCI-H226, > 100 µM (inactive). For the same compound, in the experiment with HT-29, the GI50 was > 100 µM (inactive).

For `O=C(O)c1cc(-c2ccc3cc4c(cc3c2)OCO4)nc2ccccc12`, the GI50 with SK-MEL-2 is 62.7 µM (inactive); in the experiment with KM12 it was > 100 µM (inactive); with OVCAR-5 it was 28.5 µM (inactive); in the experiment on TK-10, 18.2 µM (inactive); in the experiment on UACC-257, 5.41 µM (inactive); in the experiment on SK-OV-3, 44.7 µM (inactive). The GI50 with ACHN is 37.8 µM (inactive); in the experiment on SR it was 7.45 µM (inactive); in the experiment with A549, 21.1 µM (inactive); with SF-268, 28.6 µM (inactive); in the experiment on OVCAR-3, 41.6 µM (inactive); with NCI-H522, 35.3 µM (inactive). The GI50 in the experiment with U-251 was 19.7 µM (inactive); in the experiment with HCT-15, 12.3 µM; in the experiment with SNB-19, 25.7 µM (inactive); in the experiment with K562, 32.5 µM (inactive); in the experiment on Malme-3M, 65.2 µM (inactive); with UO-31 it was 11.5 µM (inactive). Besides, the GI50 in the experiment with NCI-H226 was 42.4 µM (inactive); in the experiment with HT-29 it was 25.9 µM (inactive).

`O=C1CC(CC(OCc2ccccc2)C(COCc2ccccc2)OCc2ccccc2)CC(=O)N1` (configuration not stated): the GI50 in the experiment with KM12 is 37.9 µM (inactive); with OVCAR-5, 44.2 µM (inactive); in the experiment with UACC-257, 27.4 µM (inactive); in the experiment with ACHN it was 30.3 µM (inactive); with SR, 34.3 µM (inactive); in the experiment on A549, 27.4 µM (inactive). Moreover, the GI50 with SF-268 is 58.1 µM (inactive); in the experiment with OVCAR-3 it was 37.4 µM (inactive); with NCI-H522 it was 23.7 µM (inactive); in the experiment with U-251, 32.5 µM (inactive); in the experiment with HCT-15, 31.9 µM; in the experiment with K562, 33.7 µM (inactive). Besides, the GI50 in the experiment on Malme-3M was 19.9 µM (inactive); with UO-31, 16 µM (inactive); in the experiment on NCI-H226, 44.1 µM (inactive); with HT-29, 24.7 µM (inactive).

On to `COc1ccccc1C(=O)NCC1CCCN2CCCCC12` (configuration not stated), for which the GI50 in the experiment with SK-MEL-2, in the experiment on KM12, in the experiment with OVCAR-5, with TK-10, in the experiment with UACC-257 and in the experiment on SK-OV-3 was > 100 µM (inactive) each time. Also, the GI50 was > 100 µM (inactive) in the experiment on ACHN; > 100 µM (inactive) in the experiment with SR; 93.3 µM (inactive) in the experiment on A549; > 100 µM (inactive) in the experiment with SF-268; > 100 µM (inactive) in the experiment with OVCAR-3; > 100 µM (inactive) in the experiment on NCI-H522. Further, the GI50 is > 100 µM (inactive) in the experiment on U-251; above 100 µM in the experiment on HCT-15; > 100 µM (inactive) in the experiment on SNB-19; > 100 µM (inactive) with K562; > 100 µM (inactive) with Malme-3M; > 100 µM (inactive) in the experiment with UO-31. The GI50 in the experiment on NCI-H226 and in the experiment with HT-29 was > 100 µM (inactive) in each case.

For `O=C1CN2C(Cl)(Cl)C2(c2ccccc2)c2cc(Cl)ccc2N1CC1CC1` (configuration not stated), the GI50 is 17.3 µM (inactive) in the experiment with SK-MEL-2; 16.6 µM (inactive) in the experiment on KM12; 37.4 µM (inactive) in the experiment on OVCAR-5; 33.8 µM (inactive) in the experiment on TK-10; 18.9 µM (inactive) with UACC-257; 23.8 µM (inactive) in the experiment on ACHN. Moreover, the GI50 with SR is 29.2 µM (inactive); with SF-268, 29.3 µM (inactive); in the experiment on OVCAR-3, 19.6 µM (inactive); in the experiment with NCI-H522, 17.2 µM (inactive); in the experiment with U-251, 19.1 µM (inactive); in the experiment on HCT-15, 19.3 µM. In addition, the GI50 in the experiment on K562 was 31.5 µM (inactive); in the experiment with Malme-3M, 17.3 µM (inactive); with UO-31 it was 26 µM (inactive); in the experiment on NCI-H226, 21.3 µM (inactive); with HT-29 it was 17.3 µM (inactive).

With `CC1(C)N=C(Oc2ccccc2)n2nccc2N1`, the GI50 with SK-MEL-2, in the experiment on KM12, in the experiment on OVCAR-5, in the experiment on TK-10, in the experiment with UACC-257 and in the experiment on SK-OV-3 was > 100 µM (inactive) throughout. The GI50 was > 100 µM (inactive) in the experiment on ACHN; 61.4 µM (inactive) with SR; > 100 µM (inactive) with A549; > 100 µM (inactive) in the experiment on SF-268; > 100 µM (inactive) in the experiment on OVCAR-3; 40.9 µM (inactive) with NCI-H522. In addition, the GI50 is > 100 µM (inactive) in the experiment with U-251; above 100 µM in the experiment with HCT-15; > 100 µM (inactive) in the experiment with SNB-19; 82.8 µM (inactive) in the experiment with K562; > 100 µM (inactive) in the experiment with Malme-3M; > 100 µM (inactive) with UO-31. Besides, the GI50 with NCI-H226 and in the experiment with HT-29 was > 100 µM (inactive) throughout.

On to `CCN(CC)C(=O)c1cc(OC(C)C)ccc1-c1c(C)cc(OC(C)C)c(OC)c1OC`, for which the GI50 was 46.7 µM (inactive) in the experiment with SK-MEL-2; 57.8 µM (inactive) in the experiment with KM12; > 100 µM (inactive) in the experiment with OVCAR-5; > 100 µM (inactive) in the experiment on TK-10; > 100 µM (inactive) with SK-OV-3; 57.8 µM (inactive) with ACHN. Moreover, the GI50 is 33.6 µM (inactive) with SR; 48.6 µM (inactive) in the experiment with A549; > 100 µM (inactive) in the experiment on SF-268; 71 µM (inactive) in the experiment with OVCAR-3; 40 µM (inactive) with NCI-H522; 63 µM (inactive) in the experiment on U-251. For the same compound, the GI50 in the experiment on HCT-15 is 46.9 µM; in the experiment with SNB-19 it was 79.1 µM (inactive); in the experiment with K562, 44.2 µM (inactive); in the experiment on Malme-3M, 44 µM (inactive); in the experiment on UO-31 it was 86.3 µM (inactive); with NCI-H226, 98.2 µM (inactive). In addition, in the experiment with HT-29, the GI50 was 38 µM (inactive).

(Values after ChEMBL document CHEMBL1201862, “PubChem BioAssay data set” (2004).)
